From patent US7294689B2, “Agonist polypeptide of receptor for Zot and Zonulin” (University of Maryland, Baltimore, priority 2003, dated 2007)
“Also recorded” adds a separate entry of the source.

What was measured:
PAR-2 = assay: FZI/0-PAR-2 AP competitive binding experiments in Caco2 cells; parameters: species or system human; details: FITC-FZI/0 2×10^−8M, competitor 100× excess (10^−6M)
Protocol: FIGS. 4A-4D. FZI/0-PAR-2 AP competitive binding experiments.
FZI/0—PAR-2 AP competitive binding experiments. The activation of PAR-2 requires binding of either its tryptase-generated, cleaved N-terminal portion or the synthetic peptide equivalent, PAR-2 AP, to the receptor's extracellular loop 2 (ECL2) (47). To establish whether FZI/0 binds to the same receptor domain, competitive binding experiments were conducted in Caco2 cells. Cell monolayers were incubated with FITC-FZI/0 (2×10^−8M)) either in the presence of an excess of PAR-2 AP (10^−6M) or a scrambled peptide and then analyzed by fluorescence microscopy.

[1] = system: mouse intestinal small intestine; assay: Microsnapwell assay, mouse small intestine TEER; details: luminal addition; PAR-2 AP 10^−6M, MCP-II 10^−8M; vs untreated tissues
[2] = system: intestinal tissues of wild-type mice; assay: Intestinal TEER in wild-type mice; details: vs control tissues
Caco2 cell monolayers = assay: PAR-2 AP-induced actin rearrangement in Caco2 cell monolayers; assay type: cell-based, human; details: 10^−6M, vs BSA-treated monolayers
Source text: FIGS. 5A to 5D. Actin cytoskeleton arrangement in Caco2 cells exposed to PAR2-AP (FIG. 5A), BSA (FIG. 5B), PAR2-AP+FZI/0 (FIG. 5C), or PAR-2 AP+FZI/1 (FIG. 5D).
Effect of the Zot/zonulin inhibitor FZI/0 on PAR-2 AP-induced actin rearrangement. It has been recently reported that activation of PAR-2 receptor by PAR-2 AP promotes cytoskeletal reorganization (53). To establish whether this effect can be prevented by the synthetic Zot/zonulin peptide inhibitor, FZI/0, immunofluorescence studies were conducted in Caco2 cell monolayers. […] These cytoskeletal changes were blocked by the pre-incubation with 2×10^−6M FZI/0 (FIG. 5C), but not by the scrambled peptide FZI/1 (FIG. 5D). Therefore, PAR-2 AP and FZI/0 appear to bind to the identical structure on enterocytes.

Molecule	Displacement of FITC-FZI/0 by excess competitor (PAR-2)	Displacement of FITC-FZI/0 by excess competitor (PAR-2; listed as PAR2-AP)	Effect on TEER [1]	Effect on intestinal TEER [2]	Actin cytoskeleton arrangement (stress fibers) (Caco2 cell monolayers)
SLIGRL [PAR-2 AP]	significant reduction of FZI/0 immunofluorescent staining particles	displaced FZI/0	significant drops in TEER; also recorded: decreased TEER	significant drops in TEER; also recorded: comparable drop in intestinal resistance	dissolution of stress fibers
MCP-II: mast cell protease II, serine proteinase of mucosal mast cells (protein, UniProt P00770 21-247, looked up) Mast cell protease 2: IIGGVESIPHSRPYMAHLDIVTEKGLRVICGGFLISRQFVLTAAHCKGREITVILGAHDVRKRESTQQKIKVEKQIIHESYNSVPNLHDIMLLKLEKKVELTPAVNVVPLPSPSDFIHPGAMCWAAGWGKTGVRDPTSYTLREVELRIMDEKACVDYRYYEYKFQVCVGSPTTLRAAFMGDSGGPLLCAGVAHGIVSYGHPDAKPPAIFTRVSTYVPWINAVINTSS	–	–	significant drops in TEER; also recorded: decreased TEER	–	–
